From patent US4677100A, “Cephalosporin derivatives” (Banyu Pharmaceutical Co., Ltd., priority 1984, dated 1987)
≈ marks a conversion by molar mass, not a printed value.

Columns and labels:
A. calcoaceticus No. 14 = assay: MIC, agar plate dilution method; format: cell-based; conditions: Acinetobacter calcoaceticus; for MIC: A. calcoaceticus No. 14, 10^6 CFU/ml, Sensitivity Disk Agar, read-out: Minimum Inhibitory Concentration
Procedure: (§1) The minimum inhibitory concentrations (MIC: μg/ml) of the compounds of the present invention against various microorganisms were measured by an agar plate dilution method (inoculum size: 10^6 CFU/ml) by using Sensitivity Disk Agar (Nissui) in comparison with Cefotaxime and Ceftazidime as comparative compounds.

C. freundii No. 7 = assay: MIC, agar plate dilution method; format: cell-based; conditions: Citrobacter freundii; C. freundii No. 7; 10^6 CFU/ml; Sensitivity Disk Agar; read-out: Minimum Inhibitory Concentration
Procedure: as §1

E. cloaceae Nek 39 = assay: MIC, agar plate dilution method; format: cell-based; conditions: E. cloaceae Nek 39; 10^6 CFU/ml; Sensitivity Disk Agar; read-out: Minimum Inhibitory Concentration
Procedure: as §1

E. coli C/Rms149 = assay: MIC, agar plate dilution method; format: cell-based; conditions: Escherichia coli, read-out: Minimum Inhibitory Concentration
Procedure: as §1

E. coli CSH2 = assay: MIC, agar plate dilution method; format: cell-based; conditions: Escherichia coli, 10^6 CFU/ml, Sensitivity Disk Agar, read-out: Minimum Inhibitory Concentration
Procedure: as §1

E. coli CSH = assay: MIC, agar plate dilution method; format: cell-based; conditions: Escherichia coli, read-out: Minimum Inhibitory Concentration
Procedure: as §1

E. coli ML1410/Rte16 = assay: MIC, agar plate dilution method; format: cell-based; conditions: Escherichia coli, ML1410/RTE16, read-out: Minimum Inhibitory Concentration
Procedure: as §1

E. coli NIHJJC-2 = assay: MIC, agar plate dilution method; format: cell-based; conditions: Escherichia coli, NIHJJC2; E. coli NIHJJC-2; 10^6 CFU/ml; Sensitivity Disk Agar; read-out: Minimum Inhibitory Concentration
Procedure: as §1

E. coli W3630/Rms212 = assay: MIC, agar plate dilution method; format: cell-based; conditions: Escherichia coli, W3630/RMS212, read-out: Minimum Inhibitory Concentration
Procedure: as §1

E. coli W3630/Rms213 = assay: MIC, agar plate dilution method; format: cell-based; conditions: Escherichia coli, W3630/RMS213, read-out: Minimum Inhibitory Concentration
Procedure: as §1

K. pneumoniae No. 42 = assay: MIC, agar plate dilution method; format: cell-based; conditions: Klebsiella pneumoniae; K. pneumoniae No. 42; 10^6 CFU/ml; Sensitivity Disk Agar; read-out: Minimum Inhibitory Concentration
Procedure: as §1

P. mirabilis JY10 = assay: MIC, agar plate dilution method; format: cell-based; conditions: Proteus mirabilis; P. mirabilis JY10; 10^6 CFU/ml; Sensitivity Disk Agar; read-out: Minimum Inhibitory Concentration
Procedure: as §1

P. vulgaris No. 33 = assay: MIC, agar plate dilution method; format: cell-based; conditions: Proteus vulgaris; P. vulgaris No. 33; 10^6 CFU/ml; Sensitivity Disk Agar; read-out: Minimum Inhibitory Concentration
Procedure: as §1

P. vulgaris OB1043 = assay: MIC, agar plate dilution method; format: cell-based; conditions: Proteus vulgaris; P. vulgaris OB1043; 10^6 CFU/ml; Sensitivity Disk Agar; read-out: Minimum Inhibitory Concentration
Procedure: as §1

S. aureus JS-1 = assay: MIC, agar plate dilution method; format: cell-based; conditions: Staphylococcus aureus, JS1; S. aureus JS-1; 10^6 CFU/ml; Sensitivity Disk Agar; read-out: Minimum Inhibitory Concentration
Procedure: as §1

S. aureus NIHJJC-1 = assay: MIC, agar plate dilution method; format: cell-based; conditions: Staphylococcus aureus, NIHJJC1; S. aureus NIHJJC-1; 10^6 CFU/ml; Sensitivity Disk Agar; read-out: Minimum Inhibitory Concentration
Procedure: as §1

S. marcescens No. 16-2 = assay: MIC, agar plate dilution method; format: cell-based; conditions: Serratia marcescens, NO.162; S. marcescens No. 16-2; 10^6 CFU/ml; Sensitivity Disk Agar; read-out: Minimum Inhibitory Concentration
Procedure: as §1

P. aeruginosa AK109 = assay: MIC, agar plate dilution method; format: cell-based, Pseudomonas aeruginosa; conditions: for antibacterial activity relative to the compound of Reference Example: Pseudomonas aeruginosa AK109; for MIC: Pseudomonas aeruginosa, P. aeruginosa AK109, 10^6 CFU/ml, Sensitivity Disk Agar, read-out: Minimum Inhibitory Concentration
Procedure: as §1

P. aeruginosa AKR17 = assay: MIC, agar plate dilution method; format: cell-based, Pseudomonas aeruginosa; conditions: for antibacterial activity relative to the compound of Reference Example: Pseudomonas aeruginosa AKR-17, resistant to all cephalosporins including Ceftazidime; for MIC: Pseudomonas aeruginosa, P. aeruginosa AKR17, 10^6 CFU/ml, Sensitivity Disk Agar, read-out: Minimum Inhibitory Concentration
Procedure: as §1

P. cepacia 23 = assay: MIC, agar plate dilution method; format: cell-based, Pseudomonas cepacia; conditions: for MIC: Burkholderia cepacia, P. cepacia 23, 10^6 CFU/ml, Sensitivity Disk Agar, read-out: Minimum Inhibitory Concentration; for antibacterial activity relative to the compound of Reference Example: Pseudomonas cepacia 23
Procedure: as §1

P. maltophilia IID 1275 = assay: MIC, agar plate dilution method; format: cell-based, Pseudomonas maltophilia; conditions: for antibacterial activity relative to the compound of Reference Example: Pseudomonas maltophilia resistant to all cephalosporins; for MIC: Stenotrophomonas maltophilia, IID1275, P. maltophilia IID 1275, 10^6 CFU/ml, Sensitivity Disk Agar, read-out: Minimum Inhibitory Concentration
Procedure: as §1

[1] = system: Gram-positive bacteria and Gram-negative bacteria; assay: antibacterial activity, general statement; format: cell-based; conditions: sensitive and resistant bacteria
Procedure: as §1

Compound	antibacterial activity relative to the compound of Reference Example (A. calcoaceticus No. 14)	MIC (A. calcoaceticus No. 14) [µg/mL]	MIC (C. freundii No. 7) [µg/mL]	MIC (E. cloaceae Nek 39) [µg/mL]	MIC (E. coli C/Rms149) [µg/mL]	MIC (E. coli CSH2) [µg/mL]	MIC (E. coli CSH) [µg/mL]	MIC (E. coli ML1410/Rte16) [µg/mL]	MIC (E. coli NIHJJC-2) [µg/mL]	MIC (E. coli W3630/Rms212) [µg/mL]	MIC (E. coli W3630/Rms213) [µg/mL]	MIC (K. pneumoniae No. 42) [µg/mL]	MIC (P. mirabilis JY10) [µg/mL]	MIC (P. vulgaris No. 33) [µg/mL]	MIC (P. vulgaris OB1043) [µg/mL]	MIC (S. aureus JS-1) [µg/mL]	MIC (S. aureus NIHJJC-1) [µg/mL]	MIC (S. marcescens No. 16-2) [µg/mL]	antibacterial activity relative to the compound of Reference Example (P. aeruginosa AK109)	MIC (P. aeruginosa AK109) [µg/mL]	other results
C[N+]1(CC2=C(C(=O)[O-])N3C(=O)C(NC(=O)C(=NOC4(C(=O)O)CC4)c4csc(N)n4)C3SC2)Cc2cc(O)c(O)cc2C1 (stereo not drawn) [Ex. 10-E, 7-[(Z)-2-(2-aminothiazol-4-yl)-2-(1-carboxy-1-cyclopropoxyimino)acetamido]-3-(5,6-dihydroxy-2-methyl-2-isoindolinium)methyl-3-cephem-4-carboxylate]	at least 32 times	0.2 (≈ 0.317 µM)	1.56 (≈ 2.47 µM)	≤ 0.05	≤ 0.05	≤ 0.05	≤ 0.05	≤ 0.05	≤ 0.05	≤ 0.05	≤ 0.05	0.1 (≈ 0.159 µM)	≤ 0.05	≤ 0.05	≤ 0.05	> 25	25 (≈ 39.6 µM)	0.39 (≈ 0.618 µM)	at least 16 times	≤ 0.05	antibacterial activity relative to the compound of Reference Example (P. aeruginosa AKR17): at least 32 times; MIC (P. aeruginosa AKR17): 0.1 µg/mL (≈ 0.159 µM); MIC (P. cepacia 23): ≤ 0.05 µg/mL; antibacterial activity relative to the compound of Reference Example (P. cepacia 23): at least 32 times; antibacterial activity relative to the compound of Reference Example (P. maltophilia IID 1275): at least twice as strong; MIC (P. maltophilia IID 1275): 3.12 µg/mL (≈ 4.95 µM); antibacterial activity (in words) [1]: particularly strong antibacterial activities
C[N+]1(CC2=C(C(=O)[O-])N3C(=O)C(NC(=O)C(=NOC4(C(=O)O)CCCC4)c4csc(N)n4)C3SC2)Cc2cc(O)c(O)cc2C1 (stereo not drawn) [Ex. 12-C, 7-[(Z)-2-(2-aminothiazol-4-yl)-2-(1-carboxy-1-cyclopentyloxyimino)acetamido]-3-(5,6-dihydroxy-2-methyl-2-isoindolinium)methyl-3-cephem-4-carbcxylate]	at least 32 times	0.2 (≈ 0.304 µM)	1.56 (≈ 2.37 µM)	0.1 (≈ 0.152 µM)	≤ 0.05	0.1 (≈ 0.152 µM)	0.1 (≈ 0.152 µM)	≤ 0.05	≤ 0.05	≤ 0.05	≤ 0.05	0.1 (≈ 0.152 µM)	≤ 0.05	0.1 (≈ 0.152 µM)	≤ 0.05	> 25	25 (≈ 38 µM)	0.39 (≈ 0.592 µM)	at least 16 times	≤ 0.05	antibacterial activity relative to the compound of Reference Example (P. aeruginosa AKR17): at least 32 times; MIC (P. aeruginosa AKR17): 0.1 µg/mL (≈ 0.152 µM); MIC (P. cepacia 23): ≤ 0.05 µg/mL; antibacterial activity relative to the compound of Reference Example (P. cepacia 23): at least 32 times; antibacterial activity relative to the compound of Reference Example (P. maltophilia IID 1275): at least twice as strong; MIC (P. maltophilia IID 1275): 6.25 µg/mL (≈ 9.49 µM); antibacterial activity (in words) [1]: particularly strong antibacterial activities
C[N+]1(CC2=C(C(=O)[O-])N3C(=O)C(NC(=O)C(=NOC4CCCC4)c4csc(N)n4)C3SC2)Cc2cc(O)c(O)cc2C1 (stereo not drawn) [Ex. 13-D, 7-[(Z)-2-(2-aminothiazol-4-yl)-2-cyclopentyloxyiminoacetamido]-3-(5,6-dihydroxy-2-methyl-2-isoindolinium)methyl-3-cephem-4-carboxylate]	at least 32 times	0.78 (≈ 1.27 µM)	1.56 (≈ 2.54 µM)	0.05 (≈ 0.0813 µM)	0.05 (≈ 0.0813 µM)	0.1 (≈ 0.163 µM)	0.1 (≈ 0.163 µM)	0.05 (≈ 0.0813 µM)	0.05 (≈ 0.0813 µM)	0.025 (≈ 0.0407 µM)	0.05 (≈ 0.0813 µM)	0.1 (≈ 0.163 µM)	0.05 (≈ 0.0813 µM)	0.1 (≈ 0.163 µM)	0.2 (≈ 0.325 µM)	12.5 (≈ 20.3 µM)	3.12 (≈ 5.08 µM)	0.78 (≈ 1.27 µM)	at least 16 times	0.05 (≈ 0.0813 µM)	antibacterial activity relative to the compound of Reference Example (P. aeruginosa AKR17): at least 32 times; MIC (P. aeruginosa AKR17): 0.39 µg/mL (≈ 0.634 µM); MIC (P. cepacia 23): 0.1 µg/mL (≈ 0.163 µM); antibacterial activity relative to the compound of Reference Example (P. cepacia 23): at least 32 times; antibacterial activity relative to the compound of Reference Example (P. maltophilia IID 1275): at least twice as strong; MIC (P. maltophilia IID 1275): 12.5 µg/mL (≈ 20.3 µM); antibacterial activity (in words) [1]: particularly strong antibacterial activities
